Data as given in PubChem BioAssay (NCI).
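Dose response: 5 concentrations. Exposure: 48 h. Format: 96-well plates. Endpoint: linear interpolation; highest concentration if not reached. GI50: concentration for 50% inhibition of growth. TGI denotes the concentration required for complete inhibition of growth.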

Experiments:
Assay in all cases: NCI-60 cell line screen, 48 h
[1] = test system: 786-0 renal
[2] = test system: A498 renal
[3] = test system: A549 NSCLC
[4] = test system: ACHN renal
[5] = test system: BT-549 breast
[6] = test system: CAKI-1 renal
[7] = test system: CCRF-CEM leukemia
[8] = test system: COLO 205 colon
[9] = test system: DU-145 prostate
[10] = test system: EKVX NSCLC
[11] = test system: HCC-2998 colon
[12] = test system: HCT-116 colon
[13] = test system: HCT-15 colon
[14] = test system: HL-60(TB) leukemia
[15] = test system: HOP-62 NSCLC
[16] = test system: HOP-92 NSCLC
[17] = test system: HS 578T breast
[18] = test system: HT29 colon
[19] = test system: IGROV1 ovarian
[20] = test system: K-562 leukemia
[21] = test system: KM12 colon
[22] = test system: LOX IMVI melanoma
[23] = test system: M14 melanoma
[24] = test system: MALME-3M melanoma
[25] = test system: MCF7 breast
[26] = test system: MDA-MB-231 breast
[27] = test system: MDA-MB-435
[28] = test system: MOLT-4 leukemia
[29] = test system: NCI-H226 lung
[30] = test system: NCI-H23 lung
[31] = test system: NCI-H460 lung
[32] = test system: NCI-H522 lung
[33] = test system: NCI/ADR-RES ovarian
[34] = test system: OVCAR-3 ovarian
[35] = test system: OVCAR-4 ovarian
[36] = test system: OVCAR-5 ovarian
[37] = test system: OVCAR-8 ovarian
[38] = test system: PC-3 prostate
[39] = test system: RPMI-8226 leukemia
[40] = test system: RXF 393 renal
[41] = test system: SF-268 CNS
[42] = test system: SF-295 CNS
[43] = test system: SF-539 CNS
[44] = test system: SK-MEL-2 melanoma
[45] = test system: SK-MEL-28 melanoma
[46] = test system: SK-MEL-5 melanoma
[47] = test system: SK-OV-3 ovarian
[48] = test system: SN12C renal
[49] = test system: SNB-19 CNS
[50] = test system: SNB-75 CNS
[51] = test system: SR leukemia
[52] = test system: SW-620 colon
[53] = test system: T-47D breast
[54] = test system: TK-10 renal
[55] = test system: U251 CNS
[56] = test system: UACC-257 melanoma
[57] = test system: UACC-62 melanoma
[58] = test system: UO-31 renal

Cc1c(C(=O)/C=C/c2ccc(Cl)cc2)nnn1-c1ccnc2c(C(F)(F)F)cccc12
GI50 [1]: 45.6 µM
TGI [1]: > 100 µM
GI50 [2]: > 100 µM
TGI [2]: > 100 µM
GI50 [3]: 23.7 µM
TGI [3]: > 100 µM
GI50 [4]: 51.6 µM
TGI [4]: > 100 µM
GI50 [5]: > 100 µM
TGI [5]: > 100 µM
GI50 [6]: 53.7 µM
TGI [6]: > 100 µM
GI50 [7]: 15.3 µM
TGI [7]: > 100 µM
GI50 [8]: > 100 µM
TGI [8]: > 100 µM
GI50 [9]: > 100 µM
TGI [9]: > 100 µM
GI50 [10]: 76.5 µM
TGI [10]: > 100 µM
GI50 [11]: 72.8 µM
TGI [11]: > 100 µM
GI50 [12]: 25.6 µM
TGI [12]: > 100 µM
GI50 [13]: 54.6 µM
TGI [13]: > 100 µM
GI50 [14]: 25.9 µM
TGI [14]: > 100 µM
GI50 [15]: 22 µM
TGI [15]: 47.8 µM
GI50 [16]: 18.4 µM
TGI [16]: 60.6 µM
GI50 [17]: 64.3 µM
TGI [17]: > 100 µM
GI50 [18]: 8.24 µM
TGI [18]: > 100 µM
GI50 [19]: 97.3 µM
TGI [19]: > 100 µM
GI50 [20]: 8.67 µM
TGI [20]: > 100 µM
GI50 [21]: 77.1 µM
TGI [21]: > 100 µM
GI50 [22]: 23.3 µM
TGI [22]: > 100 µM
GI50 [23]: > 100 µM
TGI [23]: > 100 µM
GI50 [24]: 26.8 µM
TGI [24]: > 100 µM
GI50 [25]: 70.7 µM
TGI [25]: > 100 µM
GI50 [26]: 17.2 µM
TGI [26]: 72.7 µM
GI50 [27]: > 100 µM
TGI [27]: > 100 µM
GI50 [28]: 19.3 µM
TGI [28]: 68.3 µM
GI50 [29]: 22.6 µM
TGI [29]: > 100 µM
GI50 [30]: 35.8 µM
TGI [30]: > 100 µM
GI50 [31]: 48.9 µM
TGI [31]: > 100 µM
GI50 [32]: 27.6 µM
TGI [32]: > 100 µM
GI50 [33]: 48.4 µM
TGI [33]: > 100 µM
GI50 [34]: 36.6 µM
TGI [34]: > 100 µM
GI50 [35]: 0.151 µM
TGI [35]: 0.966 µM
GI50 [36]: > 100 µM
TGI [36]: > 100 µM
GI50 [37]: 42.7 µM
TGI [37]: > 100 µM
GI50 [38]: 26.1 µM
TGI [38]: > 100 µM
GI50 [39]: 8.47 µM
TGI [39]: > 100 µM
GI50 [40]: 1.05 µM
TGI [40]: 34.1 µM
GI50 [41]: 21.5 µM
TGI [41]: > 100 µM
GI50 [42]: 26.9 µM
TGI [42]: > 100 µM
GI50 [43]: 51.9 µM
TGI [43]: > 100 µM
GI50 [44]: > 100 µM
TGI [44]: > 100 µM
GI50 [45]: > 100 µM
TGI [45]: > 100 µM
GI50 [46]: 53.5 µM
TGI [46]: > 100 µM
GI50 [47]: 42.1 µM
TGI [47]: 92.9 µM
GI50 [48]: 16.3 µM
TGI [48]: > 100 µM
GI50 [49]: 33.9 µM
TGI [49]: > 100 µM
GI50 [50]: 15.9 µM
TGI [50]: 36.5 µM
GI50 [51]: 8.71 µM
TGI [51]: 55.2 µM
GI50 [52]: > 100 µM
TGI [52]: > 100 µM
GI50 [53]: > 100 µM
TGI [53]: > 100 µM
GI50 [54]: 34.9 µM
TGI [54]: > 100 µM
GI50 [55]: 12.9 µM
TGI [55]: 47.8 µM
GI50 [56]: 30.2 µM
TGI [56]: > 100 µM
GI50 [57]: 26.5 µM
TGI [57]: > 100 µM
GI50 [58]: 33.5 µM
TGI [58]: > 100 µM
